According to patent US11066369B2, “N-(pyridin-2-yl)pyridine-sulfonamide derivatives and their use in the treatment of disease” (Novartis AG, priority 2016, dated 2021):
Structures can show the parent of a compound that is named as a salt.

How the values were obtained:
[1] = target: T1, horseradish peroxidase (HRP) tagged delF508-CFTR (Homo sapiens, UniProt P13569, DEL508-508); experiment: Measurement of delF508-CFTR-HRP surface expression in CFBE41o- cells; type: cell-based; details: delF508-CFTR-HRP surface expression, CFBE41o- cells; for Emax: read-out: DelF508-CFTR-HRP Amax %; for EC50: read-out: DelF508-CFTR-HRP EC50;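 as to DelF508-CFTR-HRP Amax %: percent efficacy relative to reference corrector lumacaftor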
T1 construct: expressed in transfected cells
T1 sequence (P13569 with tags, fused parts or gaps DEL508-508): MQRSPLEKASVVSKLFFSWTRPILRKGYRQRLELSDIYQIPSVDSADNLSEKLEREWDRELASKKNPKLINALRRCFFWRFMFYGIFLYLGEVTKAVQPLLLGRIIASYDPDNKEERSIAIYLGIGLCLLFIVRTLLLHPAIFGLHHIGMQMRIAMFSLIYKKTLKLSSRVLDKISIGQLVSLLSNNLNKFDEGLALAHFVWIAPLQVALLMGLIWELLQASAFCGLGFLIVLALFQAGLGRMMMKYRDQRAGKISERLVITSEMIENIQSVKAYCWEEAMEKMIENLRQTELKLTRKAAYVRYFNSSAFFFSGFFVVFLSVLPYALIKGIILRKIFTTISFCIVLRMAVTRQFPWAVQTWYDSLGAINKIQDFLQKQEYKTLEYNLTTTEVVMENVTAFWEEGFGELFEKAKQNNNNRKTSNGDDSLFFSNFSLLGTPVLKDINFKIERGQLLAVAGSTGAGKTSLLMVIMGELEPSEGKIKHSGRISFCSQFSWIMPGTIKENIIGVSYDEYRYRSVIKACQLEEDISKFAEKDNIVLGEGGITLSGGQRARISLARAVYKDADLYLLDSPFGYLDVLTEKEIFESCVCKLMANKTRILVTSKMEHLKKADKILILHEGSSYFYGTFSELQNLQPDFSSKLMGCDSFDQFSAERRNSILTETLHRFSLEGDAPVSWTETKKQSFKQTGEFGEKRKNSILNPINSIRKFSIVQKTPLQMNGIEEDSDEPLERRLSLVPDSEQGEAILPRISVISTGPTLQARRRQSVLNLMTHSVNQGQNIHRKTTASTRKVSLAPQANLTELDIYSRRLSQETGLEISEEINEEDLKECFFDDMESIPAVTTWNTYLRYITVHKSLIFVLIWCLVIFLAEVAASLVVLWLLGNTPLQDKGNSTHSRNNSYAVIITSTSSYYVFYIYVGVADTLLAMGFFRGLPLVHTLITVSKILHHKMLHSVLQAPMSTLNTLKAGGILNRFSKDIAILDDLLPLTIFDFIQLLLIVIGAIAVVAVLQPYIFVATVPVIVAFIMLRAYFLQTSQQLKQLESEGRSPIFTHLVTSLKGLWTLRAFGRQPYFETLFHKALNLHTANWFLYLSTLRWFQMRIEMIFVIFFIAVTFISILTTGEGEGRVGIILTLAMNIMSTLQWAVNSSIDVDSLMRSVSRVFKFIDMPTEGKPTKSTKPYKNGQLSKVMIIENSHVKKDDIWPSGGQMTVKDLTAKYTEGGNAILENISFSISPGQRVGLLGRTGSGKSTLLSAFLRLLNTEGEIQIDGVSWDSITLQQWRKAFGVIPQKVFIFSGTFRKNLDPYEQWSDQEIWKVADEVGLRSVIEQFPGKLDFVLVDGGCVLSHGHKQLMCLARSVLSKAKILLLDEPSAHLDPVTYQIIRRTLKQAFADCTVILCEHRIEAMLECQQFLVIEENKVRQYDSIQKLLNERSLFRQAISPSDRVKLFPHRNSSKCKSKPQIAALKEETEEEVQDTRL
Summary of the method: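 Surface-trafficked delF508-CFTR detected via extracellular HRP tag, read as luminescence from a membrane-impermeant substrate in CFBE41o- cells. Cells pre-induced 48h with 500 ng/mL doxycycline, then exposed 24h at 37° C to a 10-point, 3-fold dilution series from 10 μM (DMSO ≤0.5%). Triplicate dose-responses fitted logistically for EC50 after per-plate normalization; fold change versus reference compound.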

delF508-CFTR = target: T2, delF508-CFTR (Homo sapiens, UniProt P13569, DEL508-508); experiment: Measurement of delF508-CFTR functional activity in primary human bronchial epithelial cells (HBECs) using Multi-Transepithelial Clamp Circuit (MTECC-24) assay; type: cell-based; details: primary CF HBECs; for MTECC24 CFHBEC- Amax %: test compound added 24h before assay plus potentiator, relative to reference combination (2 μM corrector + 0.5 μM potentiator); for EC50: test compound added 24h before assay, in the presence of potentiator, mean of at least two replicates, read-out: MTECC24 CFHBEC- EC50
T2 construct: functional activity of the CFTR channel (Chloride ion transport) in patient derived primary human bronchial epithelial cells; host or cells: patient-derived primary human bronchial epithelial cells (delF508-CFTR)
T2 sequence (P13569 with tags, fused parts or gaps DEL508-508): as above
Summary of the method: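 Compound tested as 10-point, 1-in-3 concentration response (0.1% or 0.2% DMSO), 24 h basolateral pre-incubation, then re-added to both sides. MTECC-24 measured Ieq in ALI-differentiated primary delF508 bronchial cells after amiloride, forskolin activation, potentiator and INH-172 block; data normalized to DMSO baseline, EC50 fitted.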

Emax [1] [%]	EC50 [1] [nM]	MTECC24 CFHBEC- Amax % (delF508-CFTR) [%]	EC50 (delF508-CFTR) [nM]	Compound
306	2200	63.3	174	Cc1ccccc1-c1nc(NS(=O)(=O)c2cccc(N3CCNC[C@@H]3C)n2)ccc1C(F)(F)F [Example 170, (S)-6-(2-methylpiperazin-1-yl)-N-(6-(o-tolyl)-5-(trifluoromethyl)pyridin-2-yl)pyridine-2-sulfonamide Hydrochloride]
578	1060	74.3	49.5	Cc1ccccc1-c1nc(NS(=O)(=O)c2cccc(N3CCN(C(=O)OC(C)(C)C)[C@@H](CO)C3)n2)ccc1C(F)(F)F [Example 164, tert-butyl (R)-2-(hydroxymethyl)-4-(6-(N-(6-(o-tolyl)-5-(trifluoromethyl)pyridin-2-yl)sulfamoyl)pyridin-2-yl)piperazine-1-carboxylate]
180	3510	64.4	97.3	O=S(=O)(Nc1ccc(C(F)(F)F)c(-c2ccccc2Cl)n1)c1cccc(N2CCNCC2)n1 [Example 150, N-(6-(2-chlorophenyl)-5-(trifluoromethyl)pyridin-2-yl)-6-(piperazin-1-yl)pyridine-2-sulfonamide hydrochloride]
400	2520	58.2	11.6	Cc1c(-c2nc(NS(=O)(=O)c3cccc(N)n3)ccc2Cl)cccc1C(F)(F)F [Example 34, 6-amino-N-(5-chloro-6-(2-methyl-3-(trifluoromethyl)phenyl)pyridin-2-yl)pyridine-2-sulfonamide]
837	1080	66.6	8.8	Cc1cccc(C)c1-c1nc(NS(=O)(=O)c2cccc(NC3CCOCC3)n2)ccc1Cl [Example 271, N-[5-chloro-6-(2,6-dimethylphenyl)pyridin-2-yl]-6-[(oxan-4-yl)amino]pyridine-2-sulfonamide]
485	3220	89.6	87.8	Cc1ccccc1-c1nc(NS(=O)(=O)c2cccc(N3CCN(CCO)CC3)n2)ccc1C(F)(F)F [Example 182, 6-(4-(2-hydroxyethyl)piperazin-1-yl)-N-(6-(o-tolyl)-5-(trifluoromethyl)pyridin-2-yl)pyridine-2-sulfonamide Hydrochloride]
496	2500	73.6	13.3	Cc1ccccc1-c1nc(NS(=O)(=O)c2cccc(O[C@@H]3COC[C@@H]3O)n2)ccc1C(F)(F)F (racemic) [Example 291, rac-6-{[(3RS,4SR)-4-hydroxyoxolan-3-yl]oxy}-N-[6-(2-methylphenyl)-5-(trifluoromethyl)pyridin-2-yl]pyridine-2-sulfonamide]
607	1380	88.1	5.2	O=S(=O)(Nc1ccc(C(F)(F)F)c(-c2ccccc2C2CC2)n1)c1cccc(N2CC(O)C2)n1 [Example 208, N-(6-(2-cyclopropylphenyl)-5-(trifluoromethyl)pyridin-2-yl)-6-(3-hydroxyazetidin-1-yl)pyridine-2-sulfonamide]
214	1840	45.8	114	Cc1c(C#N)cccc1-c1nc(NS(=O)(=O)c2cccc(N)n2)ccc1Cl [Example 67, 6-amino-N-(5-chloro-6-(3-cyano-2-methylphenyl)pyridin-2-yl)pyridine-2-sulfonamide]
620	2590	62.2	3.8	CCOC(=O)C1(C)CCN(c2cccc(S(=O)(=O)Nc3ccc(Cl)c(-c4ccccc4C)n3)n2)CC1 [Example 254, ethyl 1-(6-(N-(5-chloro-6-(o-tolyl)pyridin-2-yl)sulfamoyl)pyridin-2-yl)-4-methylpiperidine-4-carboxylate]
636	681	108.4	15.6	Cc1ccccc1-c1nc(NS(=O)(=O)c2cccc(N3CCN4C[C@@H](F)C[C@@H]4C3)n2)ccc1C(F)(F)F [Example 138, 6-((7S,8aR)-7-fluorohexahydropyrrolo[1,2-a]pyrazin-2(1H)-yl)-N-(6-(o-tolyl)-5-(trifluoromethyl)pyridin-2-yl)pyridine-2-sulfonamide]
446	1710	82.1	4.8	Cc1c(F)cccc1-c1nc(NS(=O)(=O)c2cccc(N3CC(O)C3)n2)ccc1C(F)(F)F [Example 216, N-(6-(3-fluoro-2-methylphenyl)-5-(trifluoromethyl)pyridin-2-yl)-6-(3-hydroxyazetidin-1-yl)pyridine-2-sulfonamide]
	1880	80.5	2	Cc1c(F)cccc1-c1nc(NS(=O)(=O)c2cccc(N3CCN(C4CC4)CC3)n2)ccc1C(F)(F)F [Example 144, 6-(4-cyclopropylpiperazin-1-yl)-N-(6-(3-fluoro-2-methylphenyl)-5-(trifluoromethyl)pyridin-2-yl)pyridine-2-sulfonamide]
203	1970	57.6	182	Cc1ccc(F)cc1-c1nc(NS(=O)(=O)c2cccc(N3CC(O)(CO)C3)n2)ccc1Cl [Example 235, N-(5-chloro-6-(5-fluoro-2-methylphenyl)pyridin-2-yl)-6-(3-hydroxy-3-(hydroxymethyl)azetidin-1-yl)pyridine-2-sulfonamide]
390	2100	67.6	25.9	Cc1ccccc1-c1nc(NS(=O)(=O)c2ccc(C)c(N)n2)ccc1C(F)(F)F [Example 36, 6-amino-5-methyl-N-(6-(o-tolyl)-5-(trifluoromethyl)pyridin-2-yl)pyridine-2-sulfonamide]
499	1380	63.9	4.9	O=S(=O)(Nc1ccc(C(F)(F)F)c(-c2ccccc2C(F)(F)F)n1)c1cccc(N2CC(O)C2)n1 [Example 224, 6-(3-hydroxyazetidin-1-yl)-N-(5-(trifluoromethyl)-6-(2-(trifluoromethyl)phenyl)pyridin-2-yl)pyridine-2-sulfonamide]
289	1750	76.0	22.8	COc1ccc(F)cc1-c1nc(NS(=O)(=O)c2cccc(N3CCN(C(C)(C)C)CC3)n2)ccc1C(F)(F)F [Example 149, 6-(4-(tert-butyl)piperazin-1-yl)-N-(6-(5-fluoro-2-methoxyphenyl)-5-(trifluoromethyl)pyridin-2-yl)pyridine-2-sulfonamide]
450	2360	50.5	12.1	Cc1ccc(F)cc1-c1nc(NS(=O)(=O)c2cccc(O[C@@H]3COC[C@@H]3O)n2)ccc1Cl [Example 289, N-(5-chloro-6-(5-fluoro-2-methylphenyl)pyridin-2-yl)-6-(((3R,4S)-4-hydroxytetrahydrofuran-3-yl)oxy)pyridine-2-sulfonamide]
491	3170	65.5	71.7	Cc1ccccc1-c1nc(NS(=O)(=O)c2cccc(N3CC4(C3)OCCC4N)n2)ccc1C(F)(F)F (stereo not drawn) [Example 303, 6-(8-amino-5-oxa-2-azaspiro[3.4]octan-2-yl)-N-(6-(o-tolyl)-5-(trifluoromethyl)pyridin-2-yl)pyridine-2-sulfonamide]
586	1530	85.3	5.2	Cc1ccccc1-c1nc(NS(=O)(=O)c2cccc(N3CC(O)C3)n2)ccc1C(F)(F)F [Example 233, 6-(3-hydroxyazetidin-1-yl)-N-(6-(o-tolyl)-5-(trifluoromethyl)pyridin-2-yl)pyridine-2-sulfonamide]
492	2600	78.5	11.7	Cc1ccccc1-c1nc(NS(=O)(=O)c2cccc(N3C[C@H](O)[C@@H](N4CCCC4)C3)n2)ccc1C(F)(F)F [Example 118, 6-((3′S,4'S)-4′-hydroxy-[1,3′-bipyrrolidin]-1′-yl)-N-(6-(o-tolyl)-5-(trifluoromethyl)pyridin-2-yl)pyridine-2-sulfonamide]
231	1150	66.3	209	Cc1ccc(F)cc1-c1nc(NS(=O)(=O)c2cccc(N3C[C@@H](C)N[C@@H](C)C3)n2)ccc1C(F)(F)F [Example 178, 6-((3S,5R)-3,5-dimethylpiperazin-1-yl)-N-(6-(5-fluoro-2-methylphenyl)-5-(trifluoromethyl)pyridin-2-yl)pyridine-2-sulfonamide Hydrochloride]
